{"source": "patent US20120258975A1", "about": "“Potent Small Molecule Inhibitors of Autophagy, and Methods of Use Thereof” (Shanghai Institute of Organic Chemistry, priority 2009, published 2012)", "key": {"Vps34 complexes [1]": {"system": "Vps34 complexes", "test": "Levels of transfected Vps34 complex proteins in 293T cells (western blot)", "format": "cell-based", "details": "for levels of GFP-p150 and Atg14L: 10 μM, 4 h; for levels of flag-tagged Beclin1 and HA-Vps34: 12 h"}, "Bcap-37 cells": {"system": "Bcap-37 cells", "test": "Bcap-37 cells, normal and glucose free condition", "format": "cell-based", "description": "FIG. 11 depicts results showing that selected cancer cell lines are sensitive to MBCQ and its active derivatives under glucose free condition. BT549 cells were treated with indicated concentrations of C43 for 24 h in normal DMEM (A) or under serum free condition (B). The cell viability was assayed by MTT or harvested for western blotting assay with anti-LC3 (C). MCF-7 cells were treated with DMSO (1‰), C43 (10 μM) in DMEM with (D) or without (E) glucose, for 12 h. The cell viability was assayed by MTT or images (F). […] Bcap-37 cells were treated with indicated concentrations of C43 for 24 h in normal DMEM (H) or under serum free condition (I). The cell viability was assayed by MTT or images (J) And the cell lysates treated with C43 for indicated time were analyzed by western blotting using anti-PARP (L) or anti-LC3 (M) and α-tubulin was used as a loading control. (K) Cell cycle profile of Bcap-37 treated with C43. Bcap-37 cells were treated with DMSO (0.1%) (left figure), C43 (10 μM) (right figure) for 12 h. The cells were then fixed with 70% ethanol, stained with propidium iodide (PI, 40 μg/mL) and treated with RNase enzyme (200 μg/mL) solution for 30 min in dark. Cell cycle profile and possible apoptotic death were statistics analyzed by flow cytometer.\nTo explore the mechanism by which C43 induces the death of Bcap-37 cells, the DNA content was analyzed by FACS."}, "Beclin1": {"system": "Beclin1", "test": "Ubiquitination of Beclin1 in 293T cells", "format": "cell-based", "description": "FIG. 16 depicts results of experiments showing that spautin promotes the degradation of Beclin1 through proteasomal pathway. […] DMSO (1‰), MBCQ (10 μM), spautin (10 μM), NH4Cl (10 mM), MG132 (5 μM). […] B, 293T cells were transfected with GFP-Beclin1 and HA-Ub expression vectors.\nUbiquitination represents an essential key step in mediating proteasomal degradation. Experiments were therefore run to determine if ubiquitination of Beclin1 is increased in cells treated with C43."}, "[2]": {"target": "USP10 and USP13 interaction (Homo sapiens, UniProt Q14694+Q92995)", "sequence (Q14694 whole entry)": "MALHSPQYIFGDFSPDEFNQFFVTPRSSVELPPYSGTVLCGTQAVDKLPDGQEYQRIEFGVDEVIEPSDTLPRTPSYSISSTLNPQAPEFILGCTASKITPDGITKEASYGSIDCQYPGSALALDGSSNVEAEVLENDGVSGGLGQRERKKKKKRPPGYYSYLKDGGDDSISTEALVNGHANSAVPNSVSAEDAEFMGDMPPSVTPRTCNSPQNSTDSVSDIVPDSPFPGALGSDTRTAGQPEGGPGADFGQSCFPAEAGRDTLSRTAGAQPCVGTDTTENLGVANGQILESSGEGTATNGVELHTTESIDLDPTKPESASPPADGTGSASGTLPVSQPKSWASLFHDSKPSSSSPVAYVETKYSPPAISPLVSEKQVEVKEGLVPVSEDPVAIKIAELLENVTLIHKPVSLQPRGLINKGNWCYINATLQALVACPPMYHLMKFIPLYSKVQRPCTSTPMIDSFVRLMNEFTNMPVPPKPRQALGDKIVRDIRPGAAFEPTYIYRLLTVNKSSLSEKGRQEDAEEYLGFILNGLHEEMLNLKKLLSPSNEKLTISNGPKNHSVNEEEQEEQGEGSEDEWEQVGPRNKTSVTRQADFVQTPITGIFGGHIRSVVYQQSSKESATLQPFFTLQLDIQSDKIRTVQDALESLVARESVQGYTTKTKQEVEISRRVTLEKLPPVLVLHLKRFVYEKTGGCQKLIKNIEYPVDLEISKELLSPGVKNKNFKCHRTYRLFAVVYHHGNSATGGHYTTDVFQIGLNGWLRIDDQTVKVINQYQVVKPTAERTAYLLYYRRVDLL", "sequence (Q92995 whole entry)": "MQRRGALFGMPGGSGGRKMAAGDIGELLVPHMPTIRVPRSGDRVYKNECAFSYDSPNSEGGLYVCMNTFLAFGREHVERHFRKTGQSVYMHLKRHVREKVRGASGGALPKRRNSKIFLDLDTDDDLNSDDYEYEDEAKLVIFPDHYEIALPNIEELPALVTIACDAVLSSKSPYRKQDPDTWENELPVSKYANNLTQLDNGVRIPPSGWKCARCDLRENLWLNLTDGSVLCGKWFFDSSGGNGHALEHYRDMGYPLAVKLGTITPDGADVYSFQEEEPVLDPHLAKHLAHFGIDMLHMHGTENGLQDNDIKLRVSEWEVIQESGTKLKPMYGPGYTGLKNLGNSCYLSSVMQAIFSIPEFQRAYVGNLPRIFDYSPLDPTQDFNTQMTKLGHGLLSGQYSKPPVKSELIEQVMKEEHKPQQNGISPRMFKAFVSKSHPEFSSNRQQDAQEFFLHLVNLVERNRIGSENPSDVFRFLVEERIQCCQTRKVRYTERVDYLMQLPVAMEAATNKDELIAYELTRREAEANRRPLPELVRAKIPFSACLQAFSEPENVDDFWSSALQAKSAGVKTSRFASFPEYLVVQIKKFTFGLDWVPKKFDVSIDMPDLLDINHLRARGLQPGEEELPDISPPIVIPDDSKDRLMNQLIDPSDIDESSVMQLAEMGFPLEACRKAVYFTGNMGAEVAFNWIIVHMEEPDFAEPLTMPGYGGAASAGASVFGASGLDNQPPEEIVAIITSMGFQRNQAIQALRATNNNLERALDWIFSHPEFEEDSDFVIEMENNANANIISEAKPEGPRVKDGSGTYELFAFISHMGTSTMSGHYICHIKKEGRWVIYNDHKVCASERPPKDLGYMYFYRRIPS", "test": "GFP-USP10 / Myc-USP13 co-immunoprecipitation in 293T cells"}, "LC3-GFP (H4-LC3 cells)": {"system": "LC3-GFP (H4-LC3 cells)", "test": "LC3-GFP image-based autophagy assay in H4-LC3 cells", "format": "cell-based", "description": "FIG. 1 relates to identification of a small molecule inhibitor of autophagy by an image-based screen. A, structure of MBCQ. B, Quantitative analysis of LC3-GFP spot number per cell (a), spot size per cell (b), spot intensity per cell (c). The data are expressed as % of control vehicle treated cells. H4-LC3 cells were seeded in 96 well-plates and incubated with vehicle control (1% DMSO), 0.2 μM rapamycin with or without 10 μM MBCQ for indicated time, fixed with 4% paraformaldehyde and stained with 4,6-diamidino-2-phenylindole (DAPI, 3 μg/ml). Images of 1000 cells for each compound treatment were analyzed by ArrayScan HCS 4.0 Reader with a 20× objective (Cellomics, Pittsburgh, Pa.).\n(§1) FIG. 14 depicts MBCQ derivatives that can inhibit autophagy. To calculate EC50, H4-LC3 cells were seeded in 96 well-plates and cultured in the presence of compounds in different concentration for 24 h, and then fixed with polyformate and stained with 4,6-diamidino-2-phenylindole (DAPI, 3 μg/ml). Images data were collected with an ArrayScan HCS 4.0 Reader with a 20× objective (Cellomics, Pittsburgh, Pa.) for DAPI labeled nuclei and GFP-LC3, a marker for autophagy. The Spot Detector Bio-Application was used to acquire and analyze the images after optimization. Images of 1000 cells for each compound treatment were analyzed to obtain average cell number per field, fluorescence spot number, area and intensity per cell. DMSO and rapamycin were used as negative or positive control, respectively. The percentages of changes of LC3-GFP were calculated by dividing with that of DMSO treated samples. Each treatment was done in triplicate for mean and SD. The images were also analyzed using a conventional fluorescence microscope for visual inspection. The experiments were repeated three times\nas §1, with “15” for “14”, “with reduced or no ability to” for “that can”, “times.” for “times”\nTo explore the mechanism of autophagy and identify additional small molecules that can activate it, a high-throughput image-based screen for autophagy regulators was developed. This system takes advantage of the localization of light chain 3 coupled to GFP (LC3-GFP) to autophagosomal membrane upon induction of autophagy (Zhang, L., Yu, J., Pan, H., Hu, P., Hao, Y., Cai, W., Zhu, H., Yu, A. D., Xie, X., Ma, D., et al. (2007). Small molecule regulators of autophagy identified by an image-based high-throughput screen. Proc Natl Acad Sci USA 104, 19023-19028). […] Compounds that increase cellular levels of LC3-GFP, however, are not necessarily able to increase degradative activity of autophagy. Instead, the increases of LC3-GFP may be associated with cell death or may be a result of lysosomal defect and thus associated with blockage of autophagy. […]"}, "PDE5": {"target": "PDE5 (Homo sapiens, UniProt O76074)", "test": "Determination of % inhibition of PDE5 activity", "format": "biochemical"}, "Vps34 complexes [3]": {"system": "Vps34 complexes", "test": "Levels of endogenous Beclin1, Vps34, Atg14L in H4 and 293T cells (western blot)", "details": "for levels of endogenous Beclin1 in the presence of CHX: 293T cells, 6 h, versus CHX alone; for levels of endogenous Beclin1, Vps34 and Atg14L: H4 cells and 293T cells, 10 μM, 3-MA 10 mM", "protocol": "Twenty-four hours after the transfection, the cells were treated with indicated compounds for 12 h. The cell lysates were analyzed by western blotting using anti-HA, anti-flag or anti-tubulin. […] The cell lysates were harvested and analyzed by western blotting using: anti-Beclin1, anti-Atg14, anti-Vps34 and anti-UVRAG. Anti-α-tubulin was used as loading controls. […] The cell lysates were harvested and analyzed by western blotting using: anti-Beclin1 and anti-LC3. Anti-α-tubulin was used as loading controls."}}, "note": "Where “and” joins values, the source holds several entries; their conditions need not be identical. Equal values may be shown once. Read-outs that look alike come from different tables or passages of the source."}
{"smiles": "Fc1ccc(CNc2ncnc3ccc(F)cc23)cc1", "note": "[C43, 6-fluoro-N-(4-fluorobenzyl)quinazolin-4-amine]", "values": [{"measurement": "levels of GFP-p150 and Atg14L", "setting": "Vps34 complexes [1]", "result": "reduced the levels"}, {"measurement": "levels of flag-tagged Beclin1 and HA-Vps34", "setting": "Vps34 complexes [1]", "result": "considerably lower"}, {"measurement": "degradation of GFP-Beclin1, pathway", "setting": "Vps34 complexes [1]; with MG132 or NH4Cl", "result": "promotes the degradation of Beclin1 through the proteasomal pathway"}, {"measurement": "autophagy (western blot)", "setting": "Bcap-37 cells; basal and glucose-free conditions", "result": "inhibited autophagy"}, {"measurement": "sensitivity of cells to compound", "setting": "Bcap-37 cells; glucose free condition", "result": "highly sensitive"}, {"measurement": "DNA content by FACS", "setting": "Bcap-37 cells; glucose-free condition", "result": "induced a peak of sub-diploid DNA"}, {"measurement": "proliferation", "setting": "Bcap-37 cells; in the presence of 10% bovine serum", "result": "inhibited the proliferation"}, {"measurement": "ubiquitination of Beclin1", "setting": "Beclin1", "result": "promoted the ubiquitination of Beclin1"}, {"measurement": "GFP-USP10 and Myc-USP13 interaction", "setting": "[2]", "result": "the interaction was inhibited"}, {"measurement": "IC50", "setting": "LC3-GFP (H4-LC3 cells); cell-based assays, read-out: IC50, inhibition of autophagy", "result": "870 nM and ~800 nM"}, {"measurement": "inhibiting activity towards PDE5 and other PDEs", "setting": "PDE5; compared with MBCQ", "result": "much reduced inhibiting activity"}, {"measurement": "levels of endogenous Beclin1 in the presence of CHX", "setting": "Vps34 complexes [3]", "result": "notably lower"}, {"measurement": "levels of endogenous Beclin1, Vps34 and Atg14L", "setting": "Vps34 complexes [3]", "result": "reduce the levels of endogenous Beclin1, Vps34 and Atg14L"}]}
{"smiles": "Clc1ccc2ncnc(NCc3ccc4c(c3)OCO4)c2c1", "note": "[MBCQ]", "values": [{"measurement": "levels of GFP-p150 and Atg14L", "setting": "Vps34 complexes [1]", "result": "reduced the levels"}, {"measurement": "levels of flag-tagged Beclin1 and HA-Vps34", "setting": "Vps34 complexes [1]", "result": "considerably lower"}, {"measurement": "fold more potent than 3-MA", "setting": "LC3-GFP (H4-LC3 cells); IC50 versus 3-MA working concentration of 10 mM", "result": "about 10,000 fold"}, {"measurement": "LC3-GFP dots (number, spot size, spot intensity)", "setting": "LC3-GFP (H4-LC3 cells); basal and rapamycin (0.2 μM) stimulated, 10 μM MBCQ", "result": "reduced the number, spot size as well as spot intensity"}, {"measurement": "IC50", "setting": "LC3-GFP (H4-LC3 cells); rapamycin and MBCQ together versus rapamycin alone, read-out: IC50 (intensity of LC3-GFP)", "result": 788, "unit": "nM"}, {"measurement": "% Inhibition of PDE5 activity, Average", "setting": "PDE5; Concentration = 0.2 μM", "result": 54.4, "unit": "%"}, {"measurement": "% Inhibition of PDE5 activity, Average", "setting": "PDE5; Concentration = 2 μM", "result": 91.0, "unit": "%"}, {"measurement": "% Inhibition of PDE5 activity, Average", "setting": "PDE5; Concentration = 20 μM", "result": 98.8, "unit": "%"}, {"measurement": "levels of endogenous Beclin1 in the presence of CHX", "setting": "Vps34 complexes [3]", "result": "notably lower"}, {"measurement": "levels of endogenous Beclin1, Vps34 and Atg14L", "setting": "Vps34 complexes [3]", "result": "reduce the levels of endogenous Beclin1, Vps34 and Atg14L"}]}
